Values joined by “and” are separate entries in the source; they are usually repeats but may differ in a detail not shown here. Equal values may be shown once.
Tests used:
[1] = tested on: Human Melanoma Carcinoma Lox; assay: Growth of tumors in nude mice (LOX xenograft); format: in vivo, athymic nu/nu female mice
From the text: Growth of Tumors in Nude Mice. […] A p-value ≦0.05 indicates a statistically significant reduction in relative tumor growth of treated group compared to that of the vehicle control group.

S1-M1 = assay: Cell survival assay (SRB), S1-M1; format: cell-based; details: S1-M1 cells
Experimental: (§1) Cell Survival Assay: Standard Pharmacological Test Procedure. […] Compounds are incubated with cells for 3 days.

S1 = assay: Cell survival assay (SRB), S1; format: cell-based; details: S1 cells
Experimental: as §1

[2] = tested on: bovine microtubule-associated protein (MAP)-rich tubulin; format: biochemical; details: 0.3 uM
Outline: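 MAP-rich bovine tubulin at 1.5 mg/ml final was dissolved in cold PEM buffer (80 mM Na-PIPES pH 6.9, 1 mM MgCl2, 1 mM EGTA) with 1 mM GTP, then centrifuged at 12,000×g for 10 min at 4° C. Aliquots of 100 μl were added quickly to a low-volume 96-well plate holding duplicate 10 μl compound samples. Absorbance at 340 nm was read each minute for 60 min at 24° C.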

KB85 = assay: cells; format: cell-based; details: 3 days, SRB
Experimental: as §1

KBV1 = assay: cells; format: cell-based; details: for IC50: 3 days, SRB
Experimental: as §1

KB cells = assay: cells; format: cell-based; details: 3 days, SRB
Experimental: as §1

A375 = assay: Cell survival assay (SRB), A375; format: cell-based; details: A375 cells
Experimental: as §1

LOX = assay: Cell survival assay (SRB), LOX; format: cell-based, human; details: Homo sapiens; LOX cells
Experimental: as §1

NCl-H1299 = assay: Cell survival assay (SRB), NCl-H1299; format: cell-based; details: NCl-H1299 cells
Experimental: as §1

Colo205 = assay: Cell survival assay (SRB), Colo205; format: cell-based; details: Homo sapiens, COLO 205, 72 h, Colo205 cells, 3 days
Experimental: as §1

HCT-15 = assay: Cell survival assay (SRB), HCT-15; format: cell-based; details: Homo sapiens; HCT-15 cells
Experimental: as §1

KM20 = assay: Cell survival assay (SRB), KM20; format: cell-based; details: KM20 cells
Experimental: as §1

Structure (SMILES) | IC50 (S1-M1) | IC50 (S1) | Tubulin Polym. % inhibition at 0.3 uM [2] | IC50 (KB85; 72 h) | IC50 (KBV1; Homo sapiens, KB-V1, 72 h) | IC50 (KB cells; Homo sapiens, KB, 72 h) | IC50 (KBV1) | IC50 (LOX) | IC50 (NCl-H1299) | IC50 (Colo205) | IC50 (HCT-15) | also measured
CN[C@H](C(=O)N[C@H](C(=O)N(C)[C@H](/C=C(\C)C(=O)N1CCC[C@H]1C(=O)OC)C(C)C)C(C)(C)C)C(C)(C)c1ccccc1 [Example 35, N,β,β-trimethyl-L-phenylalanyl-N^1-{(1S,2E)-4-[(2S)-2-(methoxycarbonyl)pyrrolidin-1-yl]-1-isopropyl-3-methyl-4-oxobut-2-enyl}-N^1,3-dimethyl-L-valinamide] | 11 nM | 9 nM | 82% | 7.3 nM | 291 nM | 1.5 nM |  |  |  |  |  | % T/C on day 7 ([1]; 2 mg/kg IV on days 1, 5, 9): 5%; % T/C on day 14 ([1]; 2 mg/kg IV on days 1, 5, 9): 1%
CN[C@H](C(=O)N[C@H](C(=O)N(C)[C@H](/C=C(\C)C(=O)NN)C(C)C)C(C)(C)C)C(C)(C)c1ccccc1 [Example 109, (2S)-N-[(1S,2E)-4-hydrazino-1-isopropyl-3-methyl-4-oxo-2-butenyl]-N,3,3-trimethyl -{[(2S)-3-methyl-2-(methylamino)-3-phenylbutanoyl]amino}butanamide] |  |  |  |  |  |  | 2080 nM |  |  |  |  | % T/C on day 7 ([1]; 3 mg/kg IV on days 1, 5, 9): 24%; % T/C on day 13 ([1]; 3 mg/kg IV on days 1, 5, 9, day 13): 8%; IC50 (A375): 19 nM; IC50 (KB85): 227 nM; KBV1 % inhibition @ 3000 nM (KBV1; 3000 nM): 23%; IC50 (KB cells): 65 nM
CN[C@H](C(=O)N[C@H](C(=O)N(C)[C@H](/C=C(\C)C(=O)N1CCOCC1)C(C)C)C(C)(C)C)C(C)(C)c1ccccc1 [Example 27, (2S)-N-[(1S,2E)-1-isopropyl-3-methyl-4-(4-morpholinyl)-4-oxo-2-butenyl]-N,3,3-trimethyl-2-{[(2S)-3-methyl-2-(methylamino)-3-phenylbutanoyl]amino}butanamide] | 336 nM | 657 nM | 69% | 73.5 nM | 1300 nM | 43.5 nM |  | 50 nM | 38 nM | 23 nM | 26 nM | % T/C on day 7 ([1]; 10 mg/kg IV on days 1, 5, 9): 13% and 11%; % T/C on day 12 ([1]; 10 mg/kg IV on days 1, 5, 9, day 12): 2%; % T/C on day 14 ([1]; 10 mg/kg IV on days 1, 5, 9): 2%
CN[C@H](C(=O)N[C@H](C(=O)N(C)[C@H](/C=C(\C)C(C)=O)C(C)C)C(C)(C)C)C(C)(C)c1ccccc1 [Example 84, N,β,β-trimethyl-L-phenylalanyl-N^1-[(1S,2E)-1-isopropyl-3-methyl-4-oxo-2-pentenyl]-N^1,3-dimethyl-L-valinamide] |  |  | 69% | 664 nM | 2360 nM | 403 nM |  | 550 nM | 832 nM | 180 nM | 1260 nM | 
CN[C@H](C(=O)N[C@H](C(=O)N(C)[C@H](/C=C(\C)C=O)C(C)C)C(C)(C)C)C(C)(C)c1ccccc1 [Example 82, N,β,β-trimethyl-L-phenylalanyl-N^1-[(1S,2E)-1-isopropyl-3-methyl-4-oxo-2-butenyl]-N^1,3-dimethyl-L-valinamide] |  |  | 51% and 47% | 1330 nM | 1940 nM | 713 nM | > 3000 nM | 630 nM | 1570 nM | 5.1 nM | 1500 nM | IC50 (KM20): 4.6 nM; IC50 (A375; Homo sapiens, A-375): 663 nM

Source: patent US7390910B2, “Compounds for treating tumors” (priority 2003, dated 2008)
